Where only a bound is given, the exact number is not on record here.

The subject of the experiment is HER2. The experiment can be described thus: HER2 degradation assay with BT-474 cell line (Example 12, FACS). It counts as cell-based. To be noted: Homo sapiens. The source says:
HER2 Degradation Assay with BT-474 Cell Line
HER2 has emerged as a key target for anticancer drugs due to its intrinsic involvement in the phosphatidylinositol-3-kinase-Akt/protein kinase B (PI3K-Akt) and the mitogen-activated protein kinase (MAPK) pathways, both of which suppress apoptosis and promote tumor cell survival, gene transcription, angiogenesis, cellular proliferation, migration, mitosis, and differentiation. The degradation of HER2 is a measure of efficacy of anticancer therapeutics that target Hsp90. Accordingly, the SDC-TRAP molecules of the invention that comprise a binding moiety that binds Hsp90 were tested in the following HER2 degradation assay.
BT-474 cells (human breast cancer cell line ATCC HTB-20) were obtained from ATCC and seeded into 12-well tissue culture plates at 0.2×10^6/1.8 mL/well. […] Each test compound was titrated in 4-fold dilutions from 5 μM to 78 nM with DMSO and 200 μL of the titration was added to each well of the cell plate. The DMSO final concentration was 0.2%. Cells were incubated overnight at 37° C. in 5% CO2.
Media was decanted from the plate, cells were washed 1× in PBS. 400 μL trypsin (EDTA) per well was added, and the cells were incubated for 2 to 3 minutes. Cells were collected into FACS tubes containing 1 ml culture medium to neutralize the trypsin and were centrifuged for 5 minutes at 1200 rpm. Supernatant was decanted and the cells were resuspended in 5 μL FITC (anti HER2/nu)/200 μL staining buffer (1×PBS+1% FBS+0.05% Sodium Azide)/tube. Controls were […] IgG isotype control and staining buffer only. Tubes were incubated for 30 minutes in the dark at room temperature. 1 mL staining buffer was added to each tube and the tubes were centrifuged for 6 minutes at 1200 rpm. The supernatant was decanted and 300 μL staining buffer was added to each tube, which was store at 4° C. for FACS (cytometer) analysis. The cytometer readout was normalized and the potency of each compound is evaluated with IC50 calculated with XLfit™ software.

For the compound `CC(C)c1cc(-c2nnc(O)n2-c2ccc(CN3CCN(C(=O)Nc4cccc5c4CN(C4CCC(=O)NC4=O)C5=O)CC3)cc2)c(O)cc1O` (stereo not shown) [SDC-TRAP-0109, 4-(4-(3-(2,4-di hydroxy-5-isopropylphenyl)-5-hydroxy-4H-1,2,4-triazol-4-yl)benzyl)-N-(2-(2,6-dioxopiperidin-3-yl)-1-oxoisoindolin-4-yl)piperazine-1-carboxamide], the IC50 (usually the concentration needed to halve the response being measured) (BT-474 cells) is above 10 µM.

Turning to `CC(C)c1cc(-c2nnc(O)n2-c2ccc(N3CCN(CC(=O)Nc4cccc5c4CN(C4CCC(=O)NC4=O)C5=O)CC3)cc2)c(O)cc1O` (stereo not shown) [SDC-TRAP-0110, 2-(4-(4-(3-(2,4-dihydroxy-5-isopropylphenyl)-5-hydroxy-4H-1,2,4-triazol-4-yl)phenyl)piperazin-1-yl)-N-(2-(2,6-dioxopiperidin-3-yl)-1-oxoisoindolin-4-yl)acetamide], the IC50 (BT-474 cells) was above 10 µM.

In the case of `CC(C)c1cc(-c2nnc(O)n2-c2ccc(CC3CCN(C(=O)Nc4cccc5c4CN(C4CCC(=O)NC4=O)C5=O)CC3)cc2)c(O)cc1O` (stereo not shown) [SDC-TRAP-0114, 4-(4-(3-(2,4-dihydroxy-5-isopropylphenyl)-5-hydroxy-4H-1,2,4-triazol-4-yl)benzyl)-N-(2-(2,6-dioxopiperidin-3-yl)-1-oxoisoindolin-4-yl)piperidine-1-carboxamide], the IC50 (BT-474 cells) came out at 4.31 µM.

Turning to `COc1cc(O)c(-c2nnc(C(=O)NC(C)C)n2-c2ccc(CN3CCC(C(=O)Nc4cccc5c4CN(C4CCC(=O)NC4=O)C5=O)CC3)cc2)cc1C(C)C` (stereo not shown) [SDC-TRAP-0115, N-(2-(2,6-dioxopiperidin-3-yl)-1-oxoisoindolin-4-yl)-1-(4-(3-(2-hydroxy-5-isopropyl-4-methoxyphenyl)-5-(isopropylcarbamoyl)-4H-1,2,4-triazol-4-yl)benzyl)piperidine-4-carboxamide], the IC50 (BT-474 cells) came out at 1.89 µM.

Regarding `CC(C)c1cc(-c2nnc(O)n2-c2ccc(CN3CCN(C(=O)ONC(=O)CCCCCCC(=O)Nc4ccccc4)CC3)cc2)c(O)cc1O` [SDC-TRAP-0117, N1-((4-(4-(3-(2,4-dihydroxy-5-isopropylphenyl)-5-hydroxy-4H-1,2,4-triazol-4-yl)benzyl)piperazine-1-carbonyl)oxy)-N8-phenyloctanediamide], for the setting “BT-474 cells”, the IC50 turned out to be 1.09 µM.

Turning to `CC(C)c1cc(-c2nnc(O)n2-c2ccc3c(ccn3CCC3CCN(C(=O)ONC(=O)CCCCCCC(=O)Nc4ccccc4)CC3)c2)c(O)cc1O` [SDC-TRAP-0118, N1-((4-(2-(5-(3-(2,4-dihydroxy-5-isopropylphenyl)-5-hydroxy-4H-1,2,4-triazol-4-yl)-1H-indol-1-yl)ethyl)piperidine-1-carbonyl)oxy)-N8-phenyloctanediamide], the IC50 (BT-474 cells) was 2.35 µM.

Compound `CC(C)c1cc(-c2nnc(O)n2-c2ccc3c(ccn3CCC3CCN(C(=O)Nc4cccc5c4CN(C4CCC(=O)NC4=O)C5=O)CC3)c2)c(O)cc1O` (stereo not shown) [SDC-TRAP-0119, 4-(2-(5-(3-(2,4-dihydroxy-5-isopropylphenyl)-5-hydroxy-4H-1,2,4-triazol-4-yl)-1H-indol-1-yl)ethyl)-N-(2-(2,6-dioxopiperidin-3-yl)-1-oxoisoindolin-4-yl)piperidine-1-carboxamide] displayed an IC50 (BT-474 cells) above 10 µM.

Turning to `CC(C)c1cc(-c2nnc(O)n2-c2ccc(CN3CCN(C(=O)COC(=O)Nc4cccc5c4CN(C4CCC(=O)NC4=O)C5=O)CC3)cc2)c(O)cc1O` (stereo not shown) [SDC-TRAP-0121, 2-(4-(4-(3-(2,4-dihydroxy-5-isopropylphenyl)-5-hydroxy-4H-1,2,4-triazol-4-yl)benzyl)piperazin-1-yl)-2-oxoethyl(2-(2,6-dioxopiperidin-3-yl)-1-oxoisoindolin-4-yl)carbamate], it took 3 µM to reach half-maximal inhibition (BT-474 cells) (IC50).

As to `CC(C)c1cc(-c2nnc(O)n2-c2ccc3c(ccn3CCOC(=O)Nc3cccc4c3CN(C3CCC(=O)NC3=O)C4=O)c2)c(O)cc1O` (stereo not shown) [SDC-TRAP-0122, 2-(5-(3-(2,4-dihydroxy-5-isopropylphenyl)-5-hydroxy-4H-1,2,4-triazol-4-yl)-1H-indol-1-yl)ethyl (2-(2,6-dioxopiperidin-3-yl)-1-oxoisoindolin-4-yl)carbamate], the IC50 (BT-474 cells) was above 10 µM.

The compound `CCNC(=O)c1nnc(-c2cc(C(C)C)c(O)cc2O)n1-c1ccc(CN2CCC(C(=O)N3CCC(OC(=O)Nc4cccc5c4CN(C4CCC(=O)NC4=O)C5=O)CC3)CC2)cc1` (stereo not shown) [SDC-TRAP-0123, 1-(1-(4-(3-(2,4-Dihydroxy-5-isopropylphenyl)-5-(ethylcarbamoyl)-4H-1,2,4-triazol-4-yl)benzyl)piperidine-4-carbonyl)piperidin-4-yl (2-(2,6-dioxopiperidin-3-yl)-1-oxoisoindolin-4-yl)carbamate] displayed an IC50 (BT-474 cells) of 0.657 µM.

In the case of `CCNC(=O)c1nnc(-c2cc(C(C)C)c(O)cc2O)n1-c1ccc(CN2CCC(C(=O)N3CCC(COC(=O)Nc4cccc5c4CN(C4CCC(=O)NC4=O)C5=O)CC3)CC2)cc1` (stereo not shown) [SDC-TRAP-0124, (1-(1-(4-(3-(2,4-Dihydroxy-5-isopropylphenyl)-5-(ethylcarbamoyl)-4H-1,2,4-triazol-4-yl)benzyl)piperidine-4-carbonyl)piperidin-4-yl)methyl (2-(2,6-dioxopiperidin-3-yl)-1-oxoisoindolin-4-yl)carbamate], the IC50 (BT-474 cells) turned out to be 0.358 µM.

As to `CCNC(=O)c1nnc(-c2cc(C(C)C)c(O)cc2O)n1-c1ccc(Oc2ccc(C(=O)N3CCC(COC(=O)Nc4cccc5c4CN(C4CCC(=O)NC4=O)C5=O)CC3)cc2)cc1` (stereo not shown) [SDC-TRAP-0125, (1-(4-(4-(3-(2,4-Dihydroxy-5-isopropylphenyl)-5-(ethylcarbamoyl)-4H-1,2,4-triazol-4-yl)phenoxy)benzoyl)piperidin-4-yl)methyl (2-(2,6-dioxopiperidin-3-yl)-1-oxoisoindolin-4-yl)carbamate], inhibition (BT-474 cells) was half-maximal at 0.312 µM (IC50).

For the compound `CC(C)c1cc(-c2nnc(O)n2-c2ccc(N3CCN(CCCC(=O)Nc4cccc5c4CN(C4CCC(=O)NC4=O)C5=O)CC3)cc2)c(O)cc1O` (stereo not shown) [SDC-TRAP-0126, 4-(4-(4-(3-(2,4-dihydroxy-5-isopropylphenyl)-5-hydroxy-4H-1,2,4-triazol-4-yl)phenyl)piperazin-1-yl)-N-(2-(2,6-dioxopiperidin-3-yl)-1-oxoisoindolin-4-yl) butanamide], where the note is “BT-474 cells”, the IC50 came to 8.64 µM.

Compound `CC(C)c1cc(-c2nnc(O)n2-c2ccc(CC(=O)N(C)CCOC(=O)Nc3cccc4c3CN(C3CCC(=O)NC3=O)C4=O)cc2)c(O)cc1O` (stereo not shown) [SDC-TRAP-0127, 2-(2-(4-(3-(2,4-di hydroxy-5-isopropylphenyl)-5-hydroxy-4H-1,2,4-triazol-4-yl)phenyl)-N-methylacetamido)ethyl(2-(2,6-dioxopiperidin-3-yl)-1-oxoisoindolin-4-yl)carbamate] displayed an IC50 (BT-474 cells) of 8.09 µM.

Consider `CC(C)c1cc(-c2nnc(O)n2-c2ccc(CN3CCN(CC(=O)Nc4cccc5c4CN(C4CCC(=O)NC4=O)C5=O)CC3)cc2)c(O)cc1O` (stereo not shown) [SDC-TRAP-0128, 2-(4-(4-(3-(2,4-dihydroxy-5-isopropylphenyl)-5-hydroxy-4H-1,2,4-triazol-4-yl)benzyl)piperazin-1-yl)-N-(2-(2,6-dioxopiperidin-3-yl)-1-oxoisoindolin-4-yl)acetamide], for which, for the setting “BT-474 cells”, it took 6.91 µM to reach half-maximal inhibition (IC50).

Where the note is “BT-474 cells”, `CC(C)c1cc(-c2nnc(O)n2-c2ccc3c(ccn3CCC3CCN(CC(=O)Nc4cccc5c4CN(C4CCC(=O)NC4=O)C5=O)CC3)c2)c(O)cc1O` (stereo not shown) [SDC-TRAP-0129, 2-(4-(2-(5-(3-(2,4-dihydroxy-5-isopropylphenyl)-5-hydroxy-4H-1,2,4-triazol-4-yl)-1H-indol-1-yl)ethyl)piperidin-1-yl)-N-(2-(2,6-dioxopiperidin-3-yl)-1-oxoisoindolin-4-yl)acetamide] came in with an IC50 of 4.52 µM.

As to `CC(C)c1cc(-c2nnc(O)n2-c2ccc3c(ccn3CCC3CCN(C(=O)c4ccc(CCc5c[nH]c6nc(N)[nH]c(=O)c56)cc4)CC3)c2)c(O)cc1O` [SDC-TRAP-0130, 2-amino-5-(4-(4-(2-(5-(3-(2,4-dihydroxy-5-isopropylphenyl)-5-hydroxy-4H-1,2,4-triazol-4-yl)-1H-indol-1-yl)ethyl)piperidine-1-carbonyl)phenethyl)-3H-pyrrolo[2,3-d]pyrimidin-4(7H)-one], the IC50 (BT-474, SDC-TRAPs of the 41st table) was 1.83 µM.

Where the note is “BT-474 cells”, `CC(C)c1cc(-c2nnc(O)n2-c2ccc(CC3CCN(C(=O)COC(=O)Nc4cccc5c4CN(C4CCC(=O)NC4=O)C5=O)CC3)cc2)c(O)cc1O` (stereo not shown) [SDC-TRAP-0131, 2-(4-(4-(3-(2,4-dihydroxy-5-isopropylphenyl)-5-hydroxy-4H-1,2,4-triazol-4-yl)benzyl)piperidin-1-yl)-2-oxoethyl(2-(2,6-dioxopiperidin-3-yl)-1-oxoisoindolin-4-yl)carbamate] registered an IC50 above 5 µM.

`CC(C)c1cc(-c2nnc(O)n2-c2ccc(CC(=O)N(C)CCCOC(=O)Nc3cccc4c3CN(C3CCC(=O)NC3=O)C4=O)cc2)c(O)cc1O` (stereo not shown) [SDC-TRAP-0132, 3-(2-(4-(3-(2,4-dihydroxy-5-isopropylphenyl)-5-hydroxy-4H-1,2,4-triazol-4-yl)phenyl)-N-methylacetamido)propyl(2-(2,6-dioxopiperidin-3-yl)-1-oxoisoindolin-4-yl)carbamate] had an IC50 (BT-474 cells) above 5 µM.

Source of the values: US9956293B2, “Targeted therapeutics” (Madrigal Pharmaceuticals, Inc., priority 2014, dated 2018).
